According to paper PMC11167521, “Inhibition of neuraminidase-1 sialidase activity by interfering peptides impairs insulin receptor activity in vitro and glucose homeostasis in vivo” (The Journal of Biological Chemistry, 2024):
No end group written: not given here.

Columns and labels:
[1] = target: T1, membrane NEU-1 (Homo sapiens, UniProt Q99519); assay: Membrane NEU-1 sialidase activity, COS-7^NEU-1 crude membranes (Muf-NANA); type: biochemical; set-up: host or cells: COS-7 (ATCC CRL-1651) or COS-7^IR, transient transfection, 72 h; conditions: COS-7^NEU-1 crude membrane, 0.1 μM, 15 min, compared to mutIntPep-RKR, n = 4-5, mean ± SEM
Source text: (§1) Plasmid encoding human IR was a gift from Dr Tarik Issad (Institut Cochin, Paris, France) and plasmid encoding human PPCA protein was provided by Pr. Alessandra d’Azzo (St Jude Children's Research Hospital, Memphis, USA). These two plasmids have been previously described ([50], [51]). Plasmid encoding human NEU-1 was purchased from ImaGenes GmbH. For cell transfections, JetPEI DNA transfection reagent was purchased from Polyplus transfection. […] HepG2 cells were harvested in 1 g/L glucose Dulbecco’s modified Eagle’s medium supplemented with 10% heat inactivated fetal bovine serum, 100 units/ml penicillin, 0,1 mg/ml streptomycin at 37 °C in a humidified atmosphere at 5% CO2. COS-7 cells were maintained in culture in 4.5 g/L glucose Dulbecco’s modified Eagle’s medium supplemented with 10% heat-inactivated fetal bovine serum, 100 units/ml penicillin, 0.1 mg/ml streptomycin at 37 °C in a humidified atmosphere at 5% CO2. COS-7 cells have been stably transfected with plasmid encoding human IR. Geneticin selection (400 μg/ml) has been made after transfection to obtain a stable cell line overexpressing IR named COS-7^IR. Geneticin (80 μg/ml) were added in the completed medium to maintain this cell line. […]

[2] = target: T2, membrane NEU-1 dimers (Homo sapiens, UniProt Q99519); assay: NEU-1 dimerization in HepG2 cell membrane extracts (Western blot); type: biochemical; conditions: 0.1 μM, n = 4, mean ± SEM
T2 construct: HepG2 endogenously expresses IR and NEU-1; endogenous in cells; host or cells: HepG2 (ATCC HB-8065)
Method: HepG2 cells grown in 75 cm^2 flasks at 80% of confluence were washed twice with cold PBS and resuspended with 1 ml cold TEM buffer (75 mM Tris, 2 mM EDTA, 12 mM MgCl2, at pH 7,5) extemporaneously completed with 1% (v/v) protease inhibitor cocktail, 10 mM NaF, and 2 mM Na3VO4. After sonication, samples were centrifuged at 600g for 10 min at 4 °C to remove unlysed cells and nuclei. Supernatants were collected and centrifuged at 20,000g for 45 min at 4 °C. Crude membrane-containing pellets were then resuspended in TEM buffer supplemented with 1% (w/v) CHAPS {3-[(3-cholamidopropyl) dimethylammonio]-1-propanesulfonate} (Sigma-Aldrich). Cell membranes were then incubated with peptides at 0.1 μM and solubilized for 3 h at 4 °C under gentle end-over-end mixing. Supernatants were recovered after a centrifugation step (20,000g, 45 min, and 4 °C). These samples were then used for Western blot analyzes.
Protein samples were diluted in Laemmli buffer (500 mM Tris, 10% (w/v) SDS, 20% saccharose (w/v), 0.5% (w/v) bromophenol blue, 10% (v/v) β-mercaptoethanol, pH 6.8) and heated for 5 min at 100 °C. […]
Chemiluminescent protein detection was done by using ECL Prime Kit (GE Healthcare, Orsay, France). […] Quantification of bands intensity has been made using Image Studio Lite software (https://www.licor.com/bio/image-studio/).

[3] = tested on: COS-7 cells overexpressing IR (COS-7^IR); assay: MTT cell viability assay, COS-7 cells overexpressing IR; type: cell-based, African green monkey; conditions: peptide 0.1 μM in LDS micelles, 3 h and 24 h, compared to control without treatment, n = 3-4
Method: (§2) The concentration of 0.1 μM and two incubation times, 3 h (Fig. S1, A and C) and 24 h (Fig. S1, B and D) have been tested. […] The choice of this concentration was based on the previous study by Albrecht et al. ([31]).
(§3) HepG2 cell line and COS-7^IR cells were, respectively, harvested in 96-well plates at a cell density of 80,000 cells/well and 10,000 cells/well. After 24 h, cells were incubated with IntPep-RKR or mutIntPep-RKR at 0.1 μM or only with LDS micelles during 3 h or 24 h. Then, the medium has been removed and cells were incubated in the dark during 4 h at 37 °C with a 3-(4-5-dimethylthiazol-2-yl) -2,5-diphenyltetrazolium bromide solution (MTT, Sigma, 5 mg/ml) diluted in PBS (one-sixth v/v). The medium was removed, and 100 μl of dimethyl sulfoxide were added in each well. Cell viability was measured at 570 nm with Infinite F200 Pro (TECAN) hardware using Magellan software (https://lifesciences.tecan.com/software-magellan?p=tab--2).
(§4) HepG2 cells (A,B) and COS-7 cells
(§5) overexpressing IR (C,D) were incubated with mutIntPep-RKR, IntPep-RKR (0.1 µm) or LDS
(§6) micelles for 3h (A,C) or for 24h (B,D).
(§7) ZS equipment (Malvern Panalytical, UK). Water was used as a reference dispersing medium.
(§8) Micelles sizes were expressed in volume (as the diameter of a theorical sphere in nanometer),

[4] = tested on: HepG2 cells; assay: MTT cell viability assay, HepG2 cells; type: cell-based, human; conditions: peptide 0.1 μM in LDS micelles, 3 h and 24 h, compared to control without treatment, n = 3-4
Method: as §2, §3, §4, §5, §6, §7, §8

[5] = target: T1, membrane NEU-1; assay: Membrane NEU-1 sialidase activity, HepG2 crude membranes (Muf-NANA); type: biochemical; conditions: 0.1 μM, 15 min incubation, compared to mutIntPep-RKR at same concentration, n = 4-5, mean ± SEM
Method: HepG2 cells grown in 75 cm^2 flasks and COS-7 cell lines grown in 10 cm Petri dishes were washed twice with cold PBS and resuspended with 1 ml cold TEM buffer extemporaneously completed with 1% (v/v) protease inhibitor cocktail, 10 mM NaF, 2 mM Na3VO4. After sonication, samples were centrifuged at 600g for 10 min at 4 °C to remove nonlysed cells and nuclei. Supernatants were extracted and centrifuged at 20,000g for 45 min at 4 °C. Crude membrane-containing pellets were then resuspended in 400 μl Mes buffer (2-(N-morpholino) ethanesulfonic acid hydrate, 20 mM, pH 4.5). Protein concentration was then determined by bicinchoninic acid assay to measure sialidase activity from 50 μg of crude membrane proteins. Samples were incubated with peptides for 15 min on ice. Muf-NANA (2′-(4-MethylUmbelliFeryl)-alpha-D-N-AcetylNeuraminic Acid) (Biosynth) at a concentration of 400 μM was then added and incubated with samples for 2 h at 37 °C in the dark. The reaction was then stopped by adding Na2CO3 (Merck). A total of 150 μl of each sample were finally transferred in black 96 well plates. Emitted fluorescence was measured with Infinite F200 Pro (TECAN) hardware and Magellan software (excitation: 360 nm/emission: 465 nm) (https://lifesciences.tecan.com/software-magellan?p=tab--2).

[6] = target: T1, membrane NEU-1; assay: Membrane NEU-1 sialidase activity, COS-7^IR/NEU-1 crude membranes (Muf-NANA); type: biochemical; set-up: host or cells: COS-7 (ATCC CRL-1651) or COS-7^IR, transient transfection, 72 h; conditions: COS-7^IR/NEU-1 crude membrane, 0.1 μM, 15 min, compared to mutIntPep-RKR, n = 4-5, mean ± SEM
Source text: as §1

[7] = target: T3, membrane NEU-1 in HepG2 cells (Homo sapiens, UniProt Q99519); assay: Colocalization of fluorescent peptide with NEU-1 by confocal microscopy; type: cell-based; conditions: fixed HepG2 cells, 0.1 μM in LDS micelles, 1 h, n = 3
T3 construct: HepG2 endogenously expresses IR and NEU-1; endogenous in cells; host or cells: HepG2 (ATCC HB-8065)
Method: IntPeps coupled with FITC and solubilized in LDS micelles have been incubated at 0.1 μM for 1 h with fixed HepG2 cells.
HepG2 cells were seeded onto coverslips in 24-well plates at 50,000 cells/well. After 24 h, cells were fixed with paraformaldehyde 1% (Euromedex) for 5 min followed by a second incubation with paraformaldehyde 2% for 10 min at room temperature (RT). Cells were washed twice for 5 min with PBS and permeabilized with Triton 0.2% during 5 min at RT. A total of 3% bovine serum albumin (BSA) was disposed in each well for 1 h at RT after three washes with PBS for 5 min. Cells were then incubated with NEU-1 mouse monoclonal antibody (1/200 in PBS with 3% BSA) (Santa Cruz Biotechnology) for 2 h at RT. Then, this solution was removed, and the cells were incubated with anti-mouse secondary antibody coupled with Alexa Fluor 568 (1/1000 in PBS with 3% BSA) (Invitrogen) for 2 h at RT in the dark. After washes, cells were incubated with IntPeps coupled with FITC (0.1 μM) or with FITC alone (0.1 μM) at RT in the dark. Coverslips were then mounted in a medium containing 4′,6-diamidino-2-phenylindole (Prolong gold, antifade, Invitrogen). Slides were finally observed using confocal microscopy (Zeiss LSM 710) and featured slices were analyzed with Image J software (https://imagej.net/ij/download.html).

[8] = tested on: C57Bl/6J mice; assay: Systemic and cellular toxicity, plasma AST, CRP and LDH in mice; type: in vivo, mouse
Method: (§9) Experiments procedures were evaluated by research ethics committee of the University of Reims Champagne-Ardenne and approved by the French Ministry of Higher Education, Research and Innovation (APAFis #33891-2021111016547019). Five C57Bl/6J male and five female mice (Janvier Labs), aged 6 weeks, were maintained in a 12/12-h light/dark cycle and in a temperature and humidity-controlled environment. All mice had ad libitum access to a diet without chlorophyll (#U8959, SAFE diet) and water during the experimental period. Mice weight was measured twice per week throughout treatment. Weight gain or loss was then calculated and normalized to the weight measurement of the first week. The food intake was evaluated with weight feeders during the last week of treatment and every day. This weight was then divided by the number of mice in each cage.
(§10) Treatments have been started when mice were aged 8 weeks. Mice were under diet without chlorophyll (#U8959, SAFE diet) 2 weeks before the beginning of treatments to minimize the background noise of fluorescence measurements. LDS micelles or Cy5-IntPep-RKR were prepared as described previously and injected intraperitoneally at 100 μg/kg twice per week (100 μl).
Blood samples were collected before and after 8-weeks treatment, respectively, with LDS micelles or Cy5-IntPep-RKR by retroorbital and intracardiac pathway with sterile heparin Pasteur pipets and sterile needle in lithium heparin MiniCollect tubes (Greiner Bio-One). Animals were under isoflurane anesthesia during blood recovery. After centrifugation (3000 rpm, 10 min), plasma samples were then recovered in 1.5 ml eppendorfs and conserved at −20 °C. Finally, these samples were sent to the Institut Clinique de la Souris (Illkirch, France) to quantify several parameters as AST, CRP, and LDH. Graphics represent the percentages of observed variation between values obtained before and after 8-weeks treatment with LDS micelles or Cy5-IntPep-RKR.

[9] = tested on: C57Bl/6J mice; assay: Weight and food intake during 8 weeks of treatment in mice; type: in vivo, mouse; conditions: compared to LDS micelles
Method: as §9, §10

[10] = tested on: C57Bl/6J mice; assay: Glycemia measurement in mice; type: in vivo, mouse
Method: as §10
A slight incision at tail was made to collect a drop of blood (<10 μl). The nonfasted blood glucose was then measured under anesthesia for all groups with Contour Plus device and reactive strips before injection and 30 min after injection of LDS micelles or Cy5-IntPep-RKR at 100 μg/kg. Data were then normalized for each group by comparison with glycemia value before injection.

[11] = tested on: C57Bl/6J mice; assay: Biodistribution of fluorescent peptide in mice (fluorescence molecular tomography); type: in vivo, mouse; conditions: 100 μg/kg i.p. twice per week
Method: as §9, §10
Fluorescence measurements in entire body were realized in 13 mm cassette under isoflurane anesthesia (with PerkinElmer fluorescence molecular tomography 4000) at first, second, fifth, seventh, and eighth weeks of the treatment and 15 min after injection of fluorescent peptides. Organs were collected at the end of the treatment and placed on another cassette to measure their fluorescence with the same device. To remove the potential autofluorescence of certain organs, organ fluorescence of mice receiving LDS micelle injection (twice per week at 100 μg/kg) was measured and subtracted to those of mice receiving Cy5-IntPep-RKR. The measurement of organ fluorescence has been converted in ng of peptides per gram of organ and represented in % of peptides per organ. The software TrueQuant has been used for analyzes (https://www.perkinelmer.com.cn/lab-products-and-services/resources/in-vivo-imaging-software-downloads.html?_ga=2.29909951.1041849854.1637318373-1604795059.1637318373). The geometric size of the region of interest (ROI) background was between 40 and 41.5 mm^3, and one of the ROI was between 7900 and 8100 mm^3 in the entire body. The geometric size of the ROI background was the same in organ per organ biodistribution and one of the ROI for each organ approximatively as followed: the adipose tissue (1825 mm^3), the spleen (1095 mm^3), the stomach (2555 mm^3), the bladder (594 mm^3), the muscle (1142 mm^3), the liver (3379 mm^3), and the kidneys (1946 mm^3).

[12] = 100 μg/kg i.p. twice per week for 8 weeks, versus LDS micelles group
[13] = after 8 weeks, organ fluorescence, n = 10, mean ± SEM

ELVDPVVAAGAVVTSSGIVFFSRKR [IntPep-RKR]
decrease of membrane NEU-1 sialidase activity [1]: 35.3% ± 7.6%
decrease of the formation of NEU-1 dimers ([2]; HepG2 cell membrane extracts, 3 h at 4 °C, compared to mutIntPep-RKR): 30.7% ± 5.6%
decrease of the ratio NEU-1 dimers/NEU-1 monomers ([2]; HepG2 cell membranes, normalized to mutIntPep-RKR condition): 42.4% ± 7.3%
cell toxicity (cell viability, MTT) [3]: do not induce cell toxicity
cell toxicity (cell viability, MTT) [4]: do not induce cell toxicity
decrease of membrane NEU-1 sialidase activity [5]: 32.6% ± 5.7%
decrease of membrane NEU-1 sialidase activity [6]: 18.1% ± 2.9%

ELVDPVVVAIAVVTSSIIAFFSRKR [mutIntPep-RKR]
cell toxicity (cell viability, MTT) [3]: do not induce cell toxicity
cell toxicity (cell viability, MTT) [4]: do not induce cell toxicity

FITC-LC- E312LVDPVVAAGAVVTSSGIVFFS333-RKR [FITC-IntPep-RKR, IntPeps coupled with FITC and solubilized in LDS micelles]
colocalization with NEU-1 [7]: colocalization areas at the plasma membrane

H-C(Cy5)-E312LVDPVVAAGAVVTSSGIVFFSRKR333-NH2 [Cy5-IntPep-RKR, IntPeps coupled with cyanine-5, injected in LDS micelles]
plasma aspartate transaminase (AST) activity [8, 12]: No significant difference
plasma expression level of C-reactive protein (CRP) [8, 12]: No significant difference
plasma lactate dehydrogenase (LDH) activity [8, 12]: No significant difference
decrease of CRP level ([8]; 100 μg/kg i.p. twice per week, comparing data before and after 8-week treatment, mean ± SEM): 21.11% ± 3.1%
toxicity and inflammation ([8]; 8-week treatment, two injections per week at 100 μg/kg): did not induce toxicity and inflammation
weight ([9]; 100 μg/kg i.p. twice per week, 8 weeks, n = 10 per group): do not induce modification of weight
food intake ([9]; last week of 8-week treatment, n = 6): do not impair the food intake
increase of blood glucose after peptide injection ([10]; C57Bl/6J mice without fasting, isoflurane anesthesia, 30 min after i.p. injection at 100 μg/kg, compared to before injection, n = 10, mean ± SEM): about 44.5% ± 10.4%
blood glucose level, mice fasted for 4 h or fed ([10]; C57Bl/6J mice, 8 weeks of treatment at 100 μg/kg twice per week, versus LDS micelles group, n = 10 per group): no difference of blood glucose level
whole body fluorescence distribution ([11]; 15 min after injection, weeks 1,2,5,7 and 8): well distributed in the whole organism
% of peptides per organ, white adipose tissue ([11]; after 8 weeks, organ fluorescence minus autofluorescence, n = 10, mean ± SEM): 29.2% ± 9%
% of peptides per organ, bladder [11, 13]: 18.52% ± 5.7%
% of peptides per organ, kidneys [11, 13]: 5.33% ± 2.1%
% of peptides per organ, liver [11, 13]: 6.13% ± 2.5%
% of peptides per organ, muscle [11, 13]: 17 ± 4.25%
% of peptides per organ, spleen [11, 13]: 17.05% ± 3.7%
